Results on 19 substances are retold here after patent US8790898B2 (priority 2008, dated 2014).

“And” between values parts separate entries of the source, which are not always exact repeats. Identical values can stand only once. “Also recorded” adds a separate entry of the source. Like-named read-outs stand apart in the source and are kept apart here.

The subject of assay [1] is HIV-1 BZ 167. It is filed as cell-based.
Assay [2] concerns CBD1 peptide and CBD1- and CBM-based peptides. Details: species or system BALB/c mice. The settings on record: mouse, in vivo; for ELISA C17K / ELISA K23M / ELISA K24W / ELISA K27M / ELISA K27W / ELISA K27W(G) / ELISA K30W(G) / ELISA against the Immunogen (OD) / ELISA p6362 / ELISA titer against C17K / IgG2/IgG1 ratio: sc. Background: In an ELISA, binding on a coated surface is turned into a signal by an enzyme label. For ELISA C17K: test concentration or dose not given here. For ELISA K24W: test concentration or dose not given here. For ELISA K27W(G): test concentration or dose not given here. For ELISA K27W: test concentration or dose not given here. For ELISA K30W(G): test concentration or dose not given here. For ELISA against the Immunogen (OD): test concentration or dose not given here. For ELISA p6362: test concentration or dose not given here.

The subject of assay [3] is HIV-1 BZ 167. It is filed as cell-based. The settings on record: for Inhibition of HIV-infection: 50-fold dilution of guinea pig immune sera (bleeds S5), HIV-1 BZ 167, p24 at 5 days post infection.
The target in assay [4] is CBD1, C13K, CBD1/A and C10M peptides and the CBD1-KLH Construct (Human immunodeficiency virus type 1 group M subtype B, UniProt P04578). The settings on record: guinea pig, in vivo.
Assay [5] deals with CBD1, C13K, CBD1/A and C10M peptides and the CBD1-KLH Construct. The settings on record: guinea pig, in vivo.
Assay [6] addresses CBD1, C13K, CBD1/A and C10M peptides and the CBD1-KLH Construct (Human immunodeficiency virus type 1 group M subtype B, UniProt P04578, E630Q/H625N/T626M). The settings on record: guinea pig, in vivo.
Assay [7] relates to IgG antibodies in human HIV-1 positive sera. The format is binding. The settings on record: sera at 1000-fold dilution.

For the substance “KRWIILGLNKIVRMYGPGPGIWNNMTW [K27W(G)]”, in assay [1], the “% Inhibition of HIV-1 infection at 200-fold dilution” value is given as 16% and the “Neutralizing activity ID50 Fold-Dilution” value is given as 100-fold. Also, in assay [2], the “ELISA C17K” value is listed as less than 0.20, the “ELISA K23M” value is less than 0.20, the “ELISA K24W” value is given as less than 0.20 and the “ELISA K27M” value is reported as less than 0.20. Also, in assay [2], the “ELISA K27W” value was less than 0.20, the “ELISA K27W(G)” value is given as 0.66 ± 0.22, the “ELISA K30W(G)” value is given as less than 0.20 and the “ELISA against the Immunogen (OD)” value is 0.73 OD. The “ELISA p6362” value in assay [2] is less than 0.20.
Regarding “RGDAQYIKANSKFIGITELKKIWNNMTWMQWDK (RGDAQYIKANSKFIGITELKKIWNNMTWMQWDK) [R33K]”, in assay [1], the “% inhibition of HIV-1 at 200-fold dilution” value was 64% and the “Neutralizing activity ID50” value is 200-fold. Also, in assay [2], the “ELISA titer against C17K” value is 1.66 ± 0.37 and the IgG2/IgG1 ratio was found to be 4.05.
On to “KRWIILGLNKIVRMYKKIWNNMTWMQW [K27W]”, for which, in assay [1], the “% Inhibition of HIV-1 infection at 200-fold dilution” value came to 65% and the “Neutralizing activity ID50 Fold-Dilution” value is recorded as 300-fold. For the same substance, in assay [2], the “ELISA C17K” value was determined as 0.24 ± 0.12, the “ELISA K23M” value is reported as less than 0.20, the “ELISA K24W” value is listed as less than 0.20 and the “ELISA K27M” value is less than 0.20. In assay [2], the “ELISA K27W” value is listed as 1.49 ± 0.75, the “ELISA K27W(G)” value is less than 0.20, the “ELISA K30W(G)” value came to 2.25 ± 0.20 and the “ELISA against the Immunogen (OD)” value is 1.64 OD. In addition, the “ELISA p6362” value in assay [2] was less than 0.20.
For the substance “AQYIKANSKFIGITELKKCSLEQIWNNMTWMQWDK (AQYIKANSKFIGITELKKCSLEQIWNNMTWMQWDK) [A35K]”, in assay [1], the “% inhibition of HIV-1 at 200-fold dilution” value was determined as 42%, the “Neutralizing activity ID50” value is 150-fold and the “difference in the degree of neutralization of HIV-1 infection versus anti-CBD1 immune sera” value was “less than 2 fold”. In assay [2], the “production of anti-CBD1 peptide antibodies, fold lower compared to the CBD1 peptide alone” value is recorded as “at least 3 fold”; the “ELISA titer against C17K” value came out at 0.61 ± 0.35; the IgG2/IgG1 ratio was 1.56.
As to C-S-L-E-Q-I-W-N-N-M (CSLEQIWNNM) [C10M], in assay [1], the “% Inhibition of HIV-1 infection at 200-fold dilution” value is recorded as “No Effect” and the “Neutralizing activity ID50 Fold-Dilution” value is recorded as “No Effect”. Also, in assay [2], the “ELISA against the Immunogen (OD)” value is recorded as less than 0.10 OD.
Take KLH-CSLEQIWNNMTWMQWDK [KLH-C17K]: the “Inhibition of HIV-infection” value in assay [3] was “No Effect”. The “ELISA C10M (titer)” value in assay [4] was less than 200. Besides, in assay [5], the “ELISA C13K (titer)” value is reported as less than 200, the “ELISA CBD1/A (titer)” value is reported as less than 200 and the “ELISA KLH (titer against the CBD1-KLH construct)” value (shortened to “ELISA KLH”) is reported as less than 200. In addition, the “ELISA CBD1 (titer)” value in assay [6] is on record as less than 200.
“KQIINMWQVVGKAMYAKKCKSLEQIWNNMTWMQWDK (KQIINMWQVVGKAMYAKKCKSLEQIWNNMTWMQWDK)”: in assay [1], the “% inhibition of HIV-1 at 200-fold dilution” value was 45% and the “Neutralizing activity ID50” value is given as 150-fold. Also, in assay [2], the “ELISA titer against C17K” value is given as 1.07 ± 0.33.
The corresponding values for CKSLEQIWNNMTWMQWDK [C18K] are 65%, 250-fold and 1.75 ± 0.60.
As to “AQYIKANSKFIGITELKKIWNNMTWMQWDK (AQYIKANSKFIGITELKKIWNNMTWMQWDK) [A30K]”, in assay [1], the “% inhibition of HIV-1 at 200-fold dilution” value is on record as 45% and the “Neutralizing activity ID50” value was 150-fold. Besides, in assay [2], the “ELISA titer against C17K” value came out at 0.83 ± 0.44 and the IgG2/IgG1 ratio is 3.24.
Consider “C-I-W-N-N-M-T-W-M-Q-W-D-K (CIWNNMTWMQWDK) [C13K]”, for which, in assay [1], the “% inhibition of HIV-1 at 200-fold dilution” value was “None” and the “Neutralizing activity ID50” value was “None”. The “ELISA titer against C17K” value in assay [2] is reported as 0.03 ± 0.02. Moreover, in assay [3], the “Inhibition of HIV-infection” value is given as “No Effect”. Also, the “ELISA C10M (titer)” value in assay [4] is less than 200. Moreover, in assay [5], the “ELISA C13K (titer)” value was 400 and 200; the “ELISA CBD1/A (titer)” value is reported as less than 200; the “ELISA KLH” value is reported as less than 200. In addition, the “ELISA CBD1 (titer)” value in assay [6] is reported as less than 200.
“KRWIILGLNKIVRMYGPGPGIWNNMTWMQW [K30W(G)]”: in assay [1], the “% Inhibition of HIV-1 infection at 200-fold dilution” value stood at 81% and the “Neutralizing activity ID50 Fold-Dilution” value is 450-fold. In assay [2], the “ELISA C17K” value is given as less than 0.20, the “ELISA K23M” value was less than 0.20, the “ELISA K24W” value is on record as less than 0.20 and the “ELISA K27M” value is less than 0.20. Moreover, in assay [2], the “ELISA K27W” value is on record as less than 0.20, the “ELISA K27W(G)” value was less than 0.20, the “ELISA K30W(G)” value came out at 1.23 ± 0.55 and the “ELISA against the Immunogen (OD)” value is on record as 1.45 OD. In addition, the “ELISA p6362” value in assay [2] was less than 0.20.
Regarding “KRWIILGLNKIVRMYKKIWNNMTWMQWDK [K29K]”, in assay [1], the “% inhibition of HIV-1 at 200-fold dilution” value turned out to be 62% and the “Neutralizing activity ID50” value was 250-fold. Further, in assay [2], the “ELISA titer against C17K” value came to 1.80 ± 0.62 and the IgG2/IgG1 ratio was 4.95.
Take “KRWIILGLNKIVRMYKKIWNNM [K23M]”: in assay [1], the “% Inhibition of HIV-1 infection at 200-fold dilution” value was determined as 11% and the “Neutralizing activity ID50 Fold-Dilution” value is recorded as 100-fold. Moreover, in assay [2], the “immunized mice that developed peptide specific antibodies” value is 1 out of the five and ^aOnly 1 out of five mice immunized with the K23M peptide developed anti-K23M specific antibodies; the “ELISA C17K” value is reported as less than 0.20; the “ELISA K23M” value is on record as 0.53; the “ELISA K24W” value is listed as less than 0.20. In assay [2], the “ELISA K27M” value is less than 0.20, the “ELISA K27W” value is less than 0.20, the “ELISA K27W(G)” value is recorded as less than 0.20 and the “ELISA K30W(G)” value is on record as less than 0.20. In addition, in assay [2], the “ELISA against the Immunogen (OD)” value came out at 0.66 OD and the “ELISA p6362” value is less than 0.20.
For “C-S-L-E-Q-I-A-N-N-M-T-A-M-Q-A-D-K (CSLEQIANNMTAMQADK) [CBD1/A]”, the “Inhibition of HIV-infection” value in assay [3] is “no apparent neutralizing activity; also recorded: No Effect”. Besides, the “Inhibition of HIV infection” value in assay [3] (100 fold dilution of guinea pig immune serum (bleeds S5), HIV-1 BZ 162, human CD4+ T lymphocytes) is reported as “did not inhibit”. For the same substance, in assay [4], the “ELISA C10M (titer)” value is 16,000. In addition, in assay [5], the “ELISA C13K (titer)” value was 2,000 and 1,000; the “ELISA CBD1/A (titer)” value is 128,000; the “ELISA KLH” value is less than 200. Also, the “ELISA CBD1 (titer)” value in assay [6] was 20,000 and 16,000.
Regarding “KRWIILGLNKIVRMYKKCSLEQIWNNM [K27M]”, in assay [1], the “% Inhibition of HIV-1 infection at 200-fold dilution” value worked out at 65% and the “Neutralizing activity ID50 Fold-Dilution” value is recorded as 250-fold. Moreover, the “ELISA against the Immunogen (OD)” value in assay [2] amounted to 1.38 OD.
Turning to “KRWIILGLNKIVRMYKKIWNNMTW [K24W]”, in assay [1], the “% Inhibition of HIV-1 infection at 200-fold dilution” value was 88% and the “Neutralizing activity ID50 Fold-Dilution” value was 450-fold. In assay [2], the “ELISA C17K” value is recorded as less than 0.20, the “ELISA K23M” value came out at 0.45 ± 0.40, the “ELISA K24W” value is recorded as 1.41 ± 0.55 and the “ELISA K27M” value is on record as 0.87 ± 0.15. For the same substance, in assay [2], the “ELISA K27W” value came out at 0.21 ± 0.15, the “ELISA K27W(G)” value amounted to 1.88 ± 0.66, the “ELISA K30W(G)” value was less than 0.20 and the “ELISA against the Immunogen (OD)” value worked out at 1.55 OD. The “ELISA p6362” value in assay [2] is on record as less than 0.20.
As to SLEQIWNNMTWMQWDK [CBD1 peptide 618-633], the “HIV-1 positive sera reacting in ELISA / sera tested” value in assay [7] (Brazil, n = 22) is reported as 1/22; in assay [7] (Chili, n = 24), 1/24; in assay [7] (France, n = 81), 4/81. Moreover, the “mean OD 450 nm ± S.D. of reacting sera” value was found to be 0.75 OD in assay [7] (Brazil, n = 22); 0.30 OD in assay [7] (Chili, n = 24); 0.33 ± 0.05 OD in assay [7] (France, n = 81).
For “KRWIILGLNKIVRMYKKCKSLEQIWNNMTWMQWDK”, in assay [1], the “% inhibition of HIV-1 at 200-fold dilution” value is listed as 51% and the “Neutralizing activity ID50” value was 200-fold. The “ELISA titer against C17K” value in assay [2] is listed as 1.72 ± 0.46.
With “KRWIILGLNKIVRMYKKIWDNMTWMEW [K27W-2]”, in assay [1], the “% Inhibition of HIV-1 infection at 200-fold dilution” value is given as less than 10% and the “Neutralizing activity ID50 Fold-Dilution” value is recorded as 100-fold. For the same substance, in assay [2], the “ELISA C17K” value was less than 0.20, the “ELISA K23M” value is on record as less than 0.02, the “ELISA K24W” value is given as less than 0.02 and the “ELISA K27M” value is less than 0.20. In assay [2], the “ELISA K27W” value is recorded as 0.22 ± 0.08, the “ELISA K27W(G)” value stood at 2.01 ± 0.73, the “ELISA K30W(G)” value is given as less than 0.20 and the “ELISA against the Immunogen (OD)” value was determined as 2.01 OD. For the same substance, the “ELISA p6362” value in assay [2] was less than 0.20.
